Reference: US20250296959A1, “B7-H3 TARGETING PEPTIDES AND CONSTRUCTS THEREOF” (Mariana Oncology Inc., priority 2024, published 2025)
Starred links: 1 amine or outer side, 2 acyl side, 3 side chain; linkers in the order of their positions; H or OH if unused. Positions of bridges follow the written chain, without caps; N, C: chain ends. Non-standard residues stand in square brackets, D forms with d. Residues, ends and D or L forms follow the SMILES beside them. Groups on a side chain read outwards from the residue. ξ: configuration not given here. *: point of attachment. Ala(1-CH2CO2H-4-piperidyl) = N[C@@H](CC1CCN(CC(=O)O)CC1)C(=O)O; Ala(piperidin-4-yl) = O=C([C@H](CC1CCN([*:3])CC1)N[*:1])[*:2]; DOTA = O=C(O)CN1CCN(CC(=O)O)CCN(CC(=O)*)CCN(CC(=O)O)CC1; Trp(5-F) = N[C@@H](Cc1c[nH]c2ccc(F)cc12)C(=O)O; X1 = C[C@@H](c1ccccc1)[C@H](N[*:1])C(=O)[*:2]; Tyr(3-F) = N[C@@H](Cc1ccc(O)c(F)c1)C(=O)O; γGlu = O=C(O)[C@H](CCC(=O)[*:2])N[*:1]; 1Nal = N[C@@H](Cc1cccc2ccccc12)C(=O)O; Ala(4-THP) = N[C@@H](CC1CCOCC1)C(=O)O; AEF = NCCOc1ccc(C[C@H](N)C(=O)O)cc1; Val(3-OH) = CC(C)(O)[C@H](N)C(=O)O; Cya = N[C@@H](CS(=O)(=O)O)C(=O)O; aIle = CC[C@@H](C)[C@H](N)C(=O)O; tBuAla = CC(C)(C)C[C@H](N)C(=O)O; 4Pal = N[C@@H](Cc1ccncc1)C(=O)O; Cha = N[C@@H](CC1CCCCC1)C(=O)O; Tle = CC(C)(C)[C@H](N)C(=O)O; hLeu = CC(C)CC[C@H](N)C(=O)O; NMeS = CN[C@@H](CO)C(=O)O; ξF = NC(Cc1ccccc1)C(=O)O

Target: T1, human 4lg B7-H3 (Homo sapiens, UniProt Q5ZPR3)
T1 sequence (Q5ZPR3 29-534): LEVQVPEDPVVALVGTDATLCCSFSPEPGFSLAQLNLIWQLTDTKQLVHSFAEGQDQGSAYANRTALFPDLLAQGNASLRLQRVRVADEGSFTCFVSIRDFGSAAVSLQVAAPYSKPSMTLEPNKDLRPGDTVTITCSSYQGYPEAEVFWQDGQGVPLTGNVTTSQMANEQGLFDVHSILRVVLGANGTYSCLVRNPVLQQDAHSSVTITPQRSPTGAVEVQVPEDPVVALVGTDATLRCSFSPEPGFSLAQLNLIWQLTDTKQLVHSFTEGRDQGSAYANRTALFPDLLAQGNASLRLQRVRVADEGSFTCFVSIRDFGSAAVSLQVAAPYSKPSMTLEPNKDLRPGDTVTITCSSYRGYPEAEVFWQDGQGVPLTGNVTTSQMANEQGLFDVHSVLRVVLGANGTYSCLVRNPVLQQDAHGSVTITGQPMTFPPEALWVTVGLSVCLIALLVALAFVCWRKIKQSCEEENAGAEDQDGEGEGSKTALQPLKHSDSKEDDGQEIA
Assay: Affinity determination by surface plasmon resonance (SPR) to 4Ig B7-H3
Conditions: 4Ig B7-H3

[1] = SPR KD—25° C., 25° C. flow cell temperature
[2] = SPR KD—37° C., 37° C. flow cell temperature

Compound	Kd [1] [nM]	Kd [2] [nM]
CC(=O)N[C@@H](CCC(C)C)C(=O)N[C@@H](Cc1ccc(O)cc1)C(=O)N[C@H]1CSSC[C@@H](C(=O)N[C@@H](Cc2c[nH]c3ccc(F)cc23)C(=O)N[C@@H](Cc2ccccc2)C(=O)N[C@H](C(=O)N[C@H](CCCCNC(=O)CN2CCN(CC(=O)O)CCN(CC(=O)O)CCN(CC(=O)O)CC2)C(N)=O)[C@@H](C)O)NC(=O)[C@H](Cc2ccc(O)cc2)NC(=O)[C@H](C(C)C)NC(=O)[C@H](CC(=O)O)NC(=O)[C@H](Cc2ccc(O)cc2)NC(=O)[C@H](CCCCN)NC(=O)CNC(=O)[C@H](CC(C)(C)C)NC1=O [compound 174, Ac-hLeu-Y-C-tBuAla-G-K-Y-D-V-Y-C-5FW-F-Thr-dLys(DOTA)-CONH2] (Ac-[hLeu]YC[tBuAla]GKYDVYC[Trp(5-F)]FT[dK](DOTA)-NH2; disulfide 3-11)	10 to 100	–
CC(=O)N[C@@H](CCC(C)C)C(=O)N[C@H](C(=O)N[C@H]1CSSC[C@@H](C(=O)N[C@@H](Cc2c[nH]c3ccc(F)cc23)C(=O)N[C@@H](Cc2ccccc2)C(=O)N(C)[C@@H](CO)C(=O)N[C@H](CCCCNC(=O)CN2CCN(CC(=O)O)CCN(CC(=O)O)CCN(CC(=O)O)CC2)C(N)=O)NC(=O)[C@H](Cc2ccc(O)cc2)NC(=O)[C@H](C(C)C)NC(=O)[C@H](CC(=O)O)NC(=O)[C@H](Cc2ccc(O)cc2)NC(=O)[C@H](CC2CCNCC2)NC(=O)CNC(=O)[C@H](C(C)C)NC1=O)C(C)(C)O [compound 211, Ac-hLeu-hyVal-C-V-G-PipAla-Y-D-V-Y-C-5FW-F-NMeSer-dLys(DOTA)-CONH2] (Ac-[hLeu][Val(3-OH)]CVG[Ala(piperidin-4-yl)]YDVYC[Trp(5-F)]F[NMeS][dK](DOTA)-NH2; disulfide 3-11)	10 to 100	–
CC(=O)N[C@@H](CCC(C)C)C(=O)N[C@@H](Cc1ccc(O)cc1)C(=O)N[C@H]1CSSC[C@@H](C(=O)N[C@@H](Cc2c[nH]c3ccc(F)cc23)C(=O)N[C@@H](Cc2ccccc2)C(=O)N2CCC[C@H]2C(=O)N[C@H](CCCCNC(=O)CN2CCN(CC(=O)O)CCN(CC(=O)O)CCN(CC(=O)O)CC2)C(=O)O)NC(=O)[C@H](Cc2ccc(O)cc2)NC(=O)[C@H](C(C)C)NC(=O)[C@H](CC(=O)O)NC(=O)[C@H](CC2CCOCC2)NC(=O)[C@H](CC2CCN(CC(=O)O)CC2)NC(=O)CNC(=O)[C@H](C(C)(C)C)NC1=O [compound 319, Ac-hLeu-Y-C-Tbg-G-[Pip(CH2CO2H)Ala]-ThpA-D-V-Y-C-5FW-F-Pro-dLys(DOTA)-COOH] (Ac-[hLeu]YC[Tle]G[Ala(1-CH2CO2H-4-piperidyl)][Ala(4-THP)]DVYC[Trp(5-F)]FP[dK](DOTA)-OH; disulfide 3-11)	–	1 to 10
CC(=O)N[C@@H](CCC(C)C)C(=O)N[C@@H](Cc1ccc(O)cc1)C(=O)N[C@H]1CSSC[C@@H](C(=O)N[C@@H](Cc2c[nH]c3ccccc23)C(=O)N[C@@H](Cc2ccccc2)C(=O)N[C@H](C(=O)N[C@H](CCCCNC(=O)CN2CCN(CC(=O)O)CCN(CC(=O)O)CCN(CC(=O)O)CC2)C(N)=O)[C@@H](C)O)NC(=O)[C@H](Cc2ccc(O)c(F)c2)NC(=O)[C@H](C(C)C)NC(=O)[C@H](CC(=O)O)NC(=O)[C@H](Cc2ccc(O)cc2)NC(=O)[C@H](CCCCN)NC(=O)CNC(=O)[C@H](C(C)C)NC1=O [compound 151, Ac-hLeu-Y-C-V-G-K-Y-D-V-3FY-C-W-F-Thr-dLys(DOTA)-CONH2] (Ac-[hLeu]YCVGKYDV[Tyr(3-F)]CWFT[dK](DOTA)-NH2; disulfide 3-11)	1 to 10	–
CC(=O)N[C@@H](CCC(C)C)C(=O)N[C@@H](Cc1ccc(O)cc1)C(=O)N[C@H]1CSSC[C@@H](C(=O)N[C@@H](Cc2c[nH]c3ccc(F)cc23)C(=O)N[C@@H](Cc2ccccc2)C(=O)N[C@H](C(N)=O)[C@@H](C)O)NC(=O)[C@H](Cc2ccc(OCCNC(=O)CN3CCN(CC(=O)O)CCN(CC(=O)O)CCN(CC(=O)O)CC3)cc2)NC(=O)[C@H](C(C)C)NC(=O)[C@H](CC(=O)O)NC(=O)[C@H](Cc2ccc(O)cc2)NC(=O)[C@H](CCCCN)NC(=O)CNC(=O)[C@H](C(C)C)NC1=O [compound 191, Ac-hLeu-Y-C-V-G-K-Y-D-V-AEF(DOTA)-C-5FW-F-Thr-CONH2] (Ac-[hLeu]YCVGKYDV[AEF](DOTA)C[Trp(5-F)]FT-NH2; disulfide 3-11)	1 to 10	–
CC(=O)N[C@@H](CCC(C)C)C(=O)N[C@@H](Cc1ccc(O)cc1)C(=O)N[C@H]1CSSC[C@@H](C(=O)N[C@@H](Cc2cccc3ccccc23)C(=O)N[C@@H](Cc2ccccc2)C(=O)N(C)[C@@H](CO)C(=O)N[C@H](CCCCNC(=O)CN2CCN(CC(=O)O)CCN(CC(=O)O)CCN(CC(=O)O)CC2)C(N)=O)NC(=O)[C@H](Cc2ccc(O)cc2)NC(=O)[C@H](C(C)C)NC(=O)[C@H](CC(=O)O)NC(=O)[C@H](Cc2ccncc2)NC(=O)[C@H](CCCCN)NC(=O)CNC(=O)[C@H](C(C)(C)C)NC1=O [compound 219, Ac-hLeu-Y-C-Tbg-G-K-4PyA-D-V-Y-C-1Nal-F-NMeSer-dLys(DOTA)-CONH2] (Ac-[hLeu]YC[Tle]GK[4Pal]DVYC[1Nal]F[NMeS][dK](DOTA)-NH2; disulfide 3-11)	1 to 10	–
CC(=O)N[C@@H](CCC(C)C)C(=O)N[C@@H](Cc1ccc(O)cc1)C(=O)N[C@H]1CSSC[C@@H](C(=O)N[C@@H](Cc2c[nH]c3ccc(F)cc23)C(=O)N[C@@H](Cc2ccccc2)C(=O)N[C@H](C(=O)N[C@H](CCCCNC(=O)CN2CCN(CC(=O)O)CCN(CC(=O)O)CCN(CC(=O)O)CC2)C(N)=O)[C@@H](C)O)NC(=O)[C@H](Cc2ccc(O)cc2)NC(=O)[C@H](C(C)C)NC(=O)[C@H](CC(=O)O)NC(=O)[C@H]([C@@H](C)O)NC(=O)[C@H](CCCCN)NC(=O)CNC(=O)[C@H](C(C)C)NC1=O [compound 198, Ac-hLeu-Y-C-V-G-K-T-D-V-Y-C-5FW-F-Thr-dLys(DOTA)-CONH2] (Ac-[hLeu]YCVGKTDVYC[Trp(5-F)]FT[dK](DOTA)-NH2; disulfide 3-11)	1 to 10	–
CC(=O)N[C@@H](CCC(C)C)C(=O)N[C@@H](Cc1ccc(O)cc1)C(=O)N[C@H]1CSSC[C@@H](C(=O)N[C@@H](Cc2cccc3ccccc23)C(=O)NC(Cc2ccccc2)C(=O)N2CCC[C@H]2C(=O)N[C@H](CCCCNC(=O)CC[C@H](NC(=O)CC[C@H](NC(=O)CC[C@H](NC(=O)CN2CCN(CC(=O)O)CCN(CC(=O)O)CCN(CC(=O)O)CC2)C(=O)O)C(=O)O)C(=O)O)C(N)=O)NC(=O)[C@H](Cc2ccc(O)cc2)NC(=O)[C@H](C(C)C)NC(=O)[C@H](CC(=O)O)NC(=O)[C@H](CC2CCOCC2)NC(=O)[C@H](CCCCN)NC(=O)CNC(=O)[C@H](C(C)(C)C)NC1=O (stereo partly drawn) [compound 276, Ac-hLeu-Y-C-Tbg-G-K-ThpA-D-V-Y-C-1Nal-F-Pro-dLys(gE-gE-gE-DOTA)-CONH2] (Ac-[hLeu]YC[Tle]GK[Ala(4-THP)]DVYC[1Nal][ξF]P[dK]([γGlu-γGlu-γGlu-DOTA])-NH2; disulfide 3-11)	1 to 10	–
CC(=O)N[C@@H](CCC(C)C)C(=O)N[C@@H](Cc1ccc(O)cc1)C(=O)N[C@H]1CSSC[C@@H](C(=O)N[C@@H](Cc2c[nH]c3ccc(F)cc23)C(=O)N[C@H](C(=O)N[C@H](C(=O)N[C@H](CCCCNC(=O)CN2CCN(CC(=O)O)CCN(CC(=O)O)CCN(CC(=O)O)CC2)C(=O)O)C(C)(C)O)[C@@H](C)c2ccccc2)NC(=O)[C@H](Cc2ccc(O)cc2)NC(=O)[C@H](C(C)C)NC(=O)[C@H](CS(=O)(=O)O)NC(=O)[C@H](CC2CCOCC2)NC(=O)[C@H](CC2CCNCC2)NC(=O)CNC(=O)[C@H](C(C)(C)C)NC1=O [compound 524, Ac-hLeu-Y-C-Tbg-G-PipAla-ThpA-CysAcid-V-Y-C-5FW-[(2S, 3S)beta-Me-Phe]-hydroxyVal-dLys(DOTA)-COOH] (Ac-[hLeu]YC[Tle]G[Ala(piperidin-4-yl)][Ala(4-THP)][Cya]VYC[Trp(5-F)][X1][Val(3-OH)][dK](DOTA)-OH; disulfide 3-11)	–	< 1
CC(=O)N[C@@H](CCC(C)C)C(=O)N[C@@H](Cc1ccc(O)cc1)C(=O)N[C@H]1CSSC[C@@H](C(=O)N[C@@H](Cc2cccc3ccccc23)C(=O)NC(Cc2ccccc2)C(=O)N2CCC[C@H]2C(=O)N[C@H](CCCCNC(=O)CC[C@H](NC(=O)CN2CCN(CC(=O)O)CCN(CC(=O)O)CCN(CC(=O)O)CC2)C(=O)O)C(N)=O)NC(=O)[C@H](Cc2ccc(O)cc2)NC(=O)[C@H](C(C)C)NC(=O)[C@H](CC(=O)O)NC(=O)[C@H](CC2CCCCC2)NC(=O)[C@H](CC2CCNCC2)NC(=O)CNC(=O)[C@H](C(C)(C)C)NC1=O (stereo partly drawn) [compound 277, Ac-hLeu-Y-C-Tbg-G-PipAla-CHA-D-V-Y-C-1Nal-F-Pro-dLys(gE-DOTA)-CONH2] (Ac-[hLeu]YC[Tle]G[Ala(piperidin-4-yl)][Cha]DVYC[1Nal][ξF]P[dK]([γGlu-DOTA])-NH2; disulfide 3-11)	1 to 10	–
CC[C@@H](C)[C@@H]1NC(=O)[C@@H](NC(=O)[C@H](Cc2ccc(O)cc2)NC(=O)[C@H](CCC(C)C)NC(C)=O)CSSC[C@@H](C(=O)N[C@@H](Cc2c[nH]c3ccccc23)C(=O)N[C@@H](Cc2ccccc2)C(=O)N[C@H](C(=O)N[C@H](CCCCNC(=O)CN2CCN(CC(=O)O)CCN(CC(=O)O)CCN(CC(=O)O)CC2)C(N)=O)[C@@H](C)O)NC(=O)[C@H](Cc2ccc(O)cc2)NC(=O)[C@H](C(C)C)NC(=O)[C@H](CC(=O)O)NC(=O)[C@H](Cc2ccc(O)cc2)NC(=O)[C@H](CCCCN)NC(=O)CNC1=O [compound 121, Ac-hLeu-Y-C-allolle-G-K-Y-D-V-Y-C-W-F-Thr-dLys(DOTA)-CONH2] (Ac-[hLeu]YC[aIle]GKYDVYCWFT[dK](DOTA)-NH2; disulfide 3-11)	1 to 10	–
